In patent US11197831B2, “Compositions comprising at least one dispersed active principle and lipid microcapsules” (GALDERMA RESEARCH & DEVELOPMENT, priority 2015, dated 2021):

Tests used:
[1] = Maximum or visual solubility of the active ingredient in fatty substances and solvents (HPLC-UV); format: physicochemical
Method: (§1) The solubility and the stability of the active ingredient were evaluated by liquid chromatography coupled to a UV detector (HPLC-UV).
The solubility of the active ingredient was evaluated by liquid chromatography coupled to a UV detector (HPLC-UV).

[2] = system: Whole human abdominal skin; assay: In vitro skin penetration of dispersed Compound A2 (Franz cells, LC/MS/MS); format: in vitro ADME; conditions: irrespective of the formulation tested; 24 h
Method: In this study, the formulations were applied for 24 hours to the skin surface. At the end of the application, Compound A2 is quantified in the various skin compartments: stratum corneum, epidermis, dermis, and receiving liquid according to a validated bioanalysis method performed by positive electrospray ionization tandem mass spectrometry, using a Xevo system (Waters). The quantification limit for Compound A2 is 2 ng/mL. The LC/MS/MS conditions developed made it possible to detect up to 0.1% of the dose applied in each compartment (dose not absorbed, stratum, epidermis, dermis, and receiving liquid).
The results presented in FIG. 5 show the amount penetrated as a percentage of the dose applied (% of the dose applied) according to the various skin compartments.

[3] = Stability of the active ingredient in fatty substances and solvents (HPLC-UV); format: physicochemical
Method: as §1

[4] = system: Whole human abdominal skin; assay: In vitro skin penetration kinetics of dispersed Trifarotene (Franz cells, LC/MS/MS); format: in vitro ADME; conditions: irrespective of the formulation tested; 24 h
Method: In this study, the formulations were applied for 24 hours to the skin surface. After the application, Trifarotene is quantified at several points in time (1 h, 3 h, 6 h, 8 h and 24 h) in the various skin compartments: stratum corneum, epidermis, dermis, and receiving liquid according to a validated bioanalysis method performed by positive electrospray ionization tandem mass spectrometry, using a Xevo system (Waters). The quantification limit for Trifarotene is 0.01 ng/mL. […] [table] The results presented in FIG. 1 show the amount penetrated as a percentage of the dose applied (% of the dose applied) according to the various skin compartments after 24 h of exposure. The total amount penetrated corresponds to the amount of active ingredient assayed in the various skin compartments (stratum corneum, epidermis, dermis) and the receiving liquid. FIGS. 3 and 4 present the areas under the curve (AUCs) calculated respectively after 8 hours, corresponding to the shortest exposure times, and after 24 hours, corresponding to the longest exposure times. The AUCs were calculated for each kinetics (n=6). They were then statistically compared by one-way ANOVA followed by Dunnett's test.

[5] = in Capric/caprylic acid triglycerides (Miglyol ® 812N)
[6] = in Diisopropyl adipate (Schercemol Dia Ester)
[7] = in Octyldodecanol (Eutanol ® G)
[8] = in PPG-15 stearyl ether (Arlamol PS11E-LQ)
[9] = in Propylene glycol dicaprylate/dicaprate (Myritol ® PC)

C[C@H](NC(=O)N1CCC(c2ccc(O)cc2O)CC1)c1ccccc1 [Compound A2, (S)-4-(2,4-dihydroxyphenyl)-N-(1-phenylethyl)piperidine-1-carboxamide]
Maximum or visual* solubility (% w/w) (AT) ([1]; in Diethylene glycol monoethyl ether (Transcutol HP)): 13.9 % w/w
Maximum or visual* solubility (% w/w) (AT) ([1]; visual*, in Capric/caprylic acid triglycerides (Miglyol ® 812N)): <0.1* % w/w
Maximum or visual* solubility (% w/w) (AT) ([1]; visual*, in Diisopropyl adipate (Schercemol Dia Ester)): <1.0* % w/w
Maximum or visual* solubility (% w/w) (AT) ([1]; visual*, in Dimethyl capramide (Spectrasolv DMDA)): 20-30* % w/w
Maximum or visual* solubility (% w/w) (AT) ([1]; visual*, in PPG-15 stearyl ether (Arlamol PS11E-LQ)): <1.0* % w/w
skin distribution [2]: essentially located in the stratum corneum and the epidermis, and more moderately in the dermis
Stability (3M) (AT/40° C.) ([3]; 3M, AT/40° C., in Diethylene glycol monoethyl ether (Transcutol HP), ** Appearance of coloring at AT and at 40° C.): Stable **

CC(C)(C)c1cc(-c2cc(-c3ccc(C(=O)O)cc3)ccc2OCCO)ccc1N1CCCC1 [Trifarotene]
skin distribution [4]: essentially located in the stratum corneum and the epidermis, and more moderately in the dermis
Maximum solubility (% w/w) (AT) ([1]; in Alkyl (C12-15) benzoate (Crodamol AB)): 0.026 % w/w
Maximum solubility (% w/w) (AT) [1, 5]: 0.019 % w/w
Maximum solubility (% w/w) (AT) [1, 6]: 0.297 % w/w
Maximum solubility (% w/w) (AT) ([1]; in Macrogol oleate (Labrafil ® M1944CS)): 0.156 % w/w
Maximum solubility (% w/w) (AT) ([1]; in Mineral oil): 0.0001 % w/w
Maximum solubility (% w/w) (AT) [1, 7]: 0.137 % w/w
Maximum solubility (% w/w) (AT) [1, 8]: 0.292 % w/w
Maximum solubility (% w/w) (AT) [1, 9]: 0.069 % w/w
Maximum solubility (% w/w) (AT) ([1]; in Propylene glycol monocaprylate (Capryol ® 90)): 0.802 % w/w
Maximum solubility (% w/w) (AT) ([1]; in Propylene glycol monolaurate (Lauroglycol ® FCC)): 0.296 % w/w
Maximum solubility (% w/w) (AT) ([1]; in Sweet almond oil): 0.011 % w/w
Stability ([3]; AT/40° C., in Capric/caprylic acid triglycerides (Miglyol ® 812N)): 6 months
Stability ([3]; AT/40° C., in Diisopropyl adipate (Schercemol Dia Ester)): 6 months
Stability ([3]; AT/40° C., in Macrogol oleate (Labrafil ® M1944CS)): 6 months
Stability ([3]; AT/40° C., in PPG-15 stearyl ether (Arlamol PS11E-LQ)): 6 months
Stability ([3]; AT/40° C., in Propylene glycol monocaprylate (Capryol ® 90)): 6 months
Stability ([3]; AT/40° C., in Propylene glycol monolaurate (Lauroglycol ® FCC)): 6 months
Stability ([3]; AT/40° C., in Sweet almond oil): 6 months
Stability [3, 7]: Unstable
Stability [3, 9]: Unstable

Cc1cc(COc2ccc(S(=O)(=O)NC[C@@H](C(=O)NO)N3CCN(S(=O)(=O)C(C)C)CC3)cc2)c2ccccc2n1 [Compound A3, (S)—N-hydroxy-3-[4-(2-methyl-quinolin-4-ylmethoxy)-benzenesulfonylamino]-2-[4-(propane-2-sulfonyl)-piperazin-1-yl]-propionamide]
Maximum or visual* solubility (% w/w) (AT) ([1]; in 10/90% Dimethyl sulfoxide/C12-15 alkyl lactate): 0.12 % w/w
Maximum or visual* solubility (% w/w) (AT) ([1]; in 10/90% Dimethyl sulfoxide/Diisopropyl adipate): 0.38 % w/w
Maximum or visual* solubility (% w/w) (AT) ([1]; in 10/90% Dimethyl sulfoxide/PPG-15 stearyl ether): 0.07 % w/w
Maximum or visual* solubility (% w/w) (AT) ([1]; in 20/80% Dimethyl sulfoxide/C12-15 alkyl lactate): 0.74 % w/w
Maximum or visual* solubility (% w/w) (AT) ([1]; in 20/80% Dimethyl sulfoxide/Schercemol Dia Ester): 3.15 % w/w
Maximum or visual* solubility (% w/w) (AT) ([1]; in C12-15 alkyl lactate (Ceraphyl 41)): 0.04 % w/w
Maximum or visual* solubility (% w/w) (AT) [1, 5]: <detection limit
Maximum or visual* solubility (% w/w) (AT) [1, 6]: 0.02 % w/w
Maximum or visual* solubility (% w/w) (AT) [1, 8]: 0.01 % w/w
Maximum or visual* solubility (% w/w) (AT) ([1]; visual*, in Dimethyl sulfoxide (Procipient DMSO)): >20%* % w/w
